These molecules were tested against PIK3CG (human) (UniProt P48736) (assay: Inhibition of PIK3CG Kinase Activity).
PIK3CG (human), sequence (P48736 whole entry, looked up): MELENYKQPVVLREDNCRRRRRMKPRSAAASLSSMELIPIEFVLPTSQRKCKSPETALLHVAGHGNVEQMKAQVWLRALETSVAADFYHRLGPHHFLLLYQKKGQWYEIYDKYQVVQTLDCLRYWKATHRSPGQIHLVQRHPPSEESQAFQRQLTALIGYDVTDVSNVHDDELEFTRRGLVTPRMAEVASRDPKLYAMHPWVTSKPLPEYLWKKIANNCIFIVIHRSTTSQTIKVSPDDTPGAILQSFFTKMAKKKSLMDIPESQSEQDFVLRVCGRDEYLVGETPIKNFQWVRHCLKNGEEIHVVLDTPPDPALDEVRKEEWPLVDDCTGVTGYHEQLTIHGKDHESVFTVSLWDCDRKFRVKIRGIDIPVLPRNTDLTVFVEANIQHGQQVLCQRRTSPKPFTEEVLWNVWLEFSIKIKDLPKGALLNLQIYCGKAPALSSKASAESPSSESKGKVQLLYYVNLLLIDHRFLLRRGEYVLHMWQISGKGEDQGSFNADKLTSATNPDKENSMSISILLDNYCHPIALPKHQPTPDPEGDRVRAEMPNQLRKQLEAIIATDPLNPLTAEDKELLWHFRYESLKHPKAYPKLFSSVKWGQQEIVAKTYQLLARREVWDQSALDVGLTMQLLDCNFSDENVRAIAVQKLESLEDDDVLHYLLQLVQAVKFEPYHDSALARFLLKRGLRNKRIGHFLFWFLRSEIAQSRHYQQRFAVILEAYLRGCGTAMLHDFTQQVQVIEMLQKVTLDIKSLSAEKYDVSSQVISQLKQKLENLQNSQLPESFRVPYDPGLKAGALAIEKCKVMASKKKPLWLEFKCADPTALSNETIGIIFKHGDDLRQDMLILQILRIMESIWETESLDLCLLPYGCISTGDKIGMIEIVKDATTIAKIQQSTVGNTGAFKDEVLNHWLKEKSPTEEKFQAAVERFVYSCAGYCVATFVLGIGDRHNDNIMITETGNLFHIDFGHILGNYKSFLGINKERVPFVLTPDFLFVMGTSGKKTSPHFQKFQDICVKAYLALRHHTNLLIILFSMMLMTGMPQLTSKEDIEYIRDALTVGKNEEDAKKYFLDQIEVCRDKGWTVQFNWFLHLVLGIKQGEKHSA

IC50 [nM] | Compound
< 800 | CC(C)n1nc(CNC(=O)Nc2nc3c(s2)-c2c(cnn2-c2ccccc2C(F)(F)F)C3)cc1N
< 800 | N#CCCn1nc(CCNC(=O)Nc2nc3c(s2)-c2c(cnn2-c2ccccc2C(F)(F)F)C3)cc1N
< 800 | Nc1cc(CCNC(=O)Nc2nc3c(s2)-c2c(cnn2-c2ccccc2C(F)(F)F)C3)nn1C1CCCC1
< 800 | O=C(NCCc1cn[nH]c1)Nc1nc2c(s1)-c1c(cnn1-c1ccccc1Cl)C2
< 800 | CCCCNC(=O)Nc1nc2c(s1)-c1c(cnn1-c1ccccc1C(F)(F)F)C2
< 800 | CC(C)(C)n1nc(CNC(=O)Nc2nc3c(s2)-c2c(cnn2-c2ccccc2C(F)(F)F)C3)cc1N
< 800 | O=C(NCCN1CCCC1)Nc1nc2c(s1)-c1c(cnn1-c1ccccc1Br)C2
< 800 | CCc1cc(=O)n(CCNC(=O)Nc2nc3c(s2)-c2c(cnn2-c2ccccc2C(F)(F)F)C3)[nH]1
< 800 | CC(C)(C)OC(=O)CCNC(=O)Nc1nc2c(s1)-c1c(cnn1-c1ccccc1C(F)(F)F)C2
< 800 | C=CCn1cnc(CCNC(=O)Nc2nc3c(s2)-c2c(cnn2-c2ccccc2C(F)(F)F)C3)c1
< 800 | O=C(NCc1nnn[nH]1)Nc1nc2c(s1)-c1c(cnn1-c1ccccc1Cl)C2
< 800 | CCCNC(=O)Nc1nc2c(s1)-c1c(cnn1-c1cc(Cl)ccc1Cl)C2
< 800 | CCn1cnc(CCNC(=O)Nc2nc3c(s2)-c2c(cnn2-c2ccccc2C(F)(F)F)C3)c1
< 800 | CC(C)(C)OC(=O)N1CCC[C@H]1CNC(=O)Nc1nc2c(s1)-c1c(cnn1-c1ccccc1C(F)(F)F)C2
< 800 | CCn1cnc(CCNC(=O)Nc2nc3c(s2)-c2c(cnn2-c2cc(F)ccc2C(F)(F)F)C3)c1
< 800 | O=C(NCc1cccc(N2CCNC2=O)c1)Nc1nc2c(s1)-c1c(cnn1-c1ccccc1C(F)(F)F)C2
< 800 | NC(=O)Nc1nc2c(s1)-c1c(cnn1-c1cc(Cl)ccc1Cl)C2
< 800 | O=C(NCc1nccs1)Nc1nc2c(s1)-c1c(cnn1-c1ccccc1C(F)(F)F)C2
< 800 | Cn1nc(CCNC(=O)Nc2nc3c(s2)-c2c(cnn2-c2ccccc2C(F)(F)F)C3)cc1N
< 800 | CC(C)(C)OC(=O)CCNC(=O)Nc1nc2c(s1)-c1c(cnn1-c1ccccc1Br)C2
< 800 | CNC(=O)Nc1nc2c(s1)-c1c(cnn1-c1ccccc1C(F)(F)F)C2
< 800 | O=C(NCCc1cn[nH]c1)Nc1nc2c(s1)-c1c(cnn1-c1ccccc1C(F)(F)F)C2
< 800 | CCOC(=O)CNC(=O)Nc1nc2c(s1)-c1c(cnn1-c1ccccc1C(F)(F)F)C2

IC50 [nM] | Compound
< 800 | Nc1cc(CCNC(=O)Nc2nc3c(s2)-c2c(cnn2-c2ccccc2C(F)(F)F)C3)nn1-c1ccccc1
< 800 | Nc1cc(CCNC(=O)Nc2nc3c(s2)-c2c(cnn2-c2ccccc2C(F)(F)F)C3)nn1C1CCN(Cc2ccccc2)CC1
< 800 | CCNC(=O)Nc1c(CCNC(=O)Nc2nc3c(s2)-c2c(cnn2-c2ccccc2C(F)(F)F)C3)cnn1C
< 800 | CN(Cc1cnn(C)c1)C(=O)Nc1nc2c(s1)-c1c(cnn1-c1ccccc1C(F)(F)F)C2
< 800 | O=C(NCCN1CCOCC1)Nc1nc2c(s1)-c1c(cnn1-c1ccccc1Br)C2
< 800 | O=C(NCc1ccc(CN2CCNC2=O)cc1)Nc1nc2c(s1)-c1c(cnn1-c1ccccc1Cl)C2
< 800 | CC(C)(C)n1nc(CCNC(=O)Nc2nc3c(s2)-c2c(cnn2-c2ccccc2C(F)(F)F)C3)cc1N
< 800 | CC(C)(C)CCNC(=O)Nc1nc2c(s1)-c1c(cnn1-c1ccccc1Cl)C2
< 800 | CC(C)(O)Cn1cnc(CCNC(=O)Nc2nc3c(s2)-c2c(cnn2-c2ccccc2C(F)(F)F)C3)c1
< 800 | CC(=O)NCC1CCCN(C(=O)Nc2nc3c(s2)-c2c(cnn2-c2ccccc2Cl)C3)C1 (stereo not given)
< 800 | O=C1CCC(NC(=O)Nc2nc3c(s2)-c2c(cnn2-c2ccccc2Cl)C3)C(c2ccccc2)N1 (stereo not given)
< 800 | CCN1CCC[C@H]1CNC(=O)Nc1nc2c(s1)-c1c(cnn1-c1ccccc1Cl)C2
< 800 | CC(=O)NC1CCN(C(=O)Nc2nc3c(s2)-c2c(cnn2-c2ccccc2Cl)C3)C1 (stereo not given)
< 800 | Cc1cc(-c2cccnc2)nn1CCNC(=O)Nc1nc2c(s1)-c1c(cnn1-c1ccccc1C(F)(F)F)C2
< 800 | CC(C)(C)OC(=O)Nc1cccc(CNC(=O)Nc2nc3c(s2)-c2c(cnn2-c2ccccc2Cl)C3)c1
< 800 | COc1ccccc1C1CCN(C(=O)Nc2nc3c(s2)-c2c(cnn2-c2ccccc2Cl)C3)C1 (stereo not given)
< 800 | O=C(NCc1ccsc1)Nc1nc2c(s1)-c1c(cnn1-c1ccccc1C(F)(F)F)C2
< 800 | CCn1nc(CCNC(=O)Nc2nc3c(s2)-c2c(cnn2-c2ccccc2C(F)(F)F)C3)cc1N
< 800 | CCn1cnc(CCNC(=O)Nc2nc3c(s2)-c2c(cnn2-c2ccccc2Cl)C3)c1
< 800 | O=C(NCC1CC1)Nc1nc2c(s1)-c1c(cnn1-c1ccccc1C(F)(F)F)C2
< 800 | CC1CC(c2ccc(O)cc2)CN1C(=O)Nc1nc2c(s1)-c1c(cnn1-c1ccccc1Cl)C2 (stereo not given)
< 800 | CC(C)(C)OC(=O)NCc1cccc(CNC(=O)Nc2nc3c(s2)-c2c(cnn2-c2ccccc2Cl)C3)c1
< 800 | Cc1onc(-c2ccccc2)c1CNC(=O)Nc1nc2c(s1)-c1c(cnn1-c1ccccc1C(F)(F)F)C2

IC50 [nM] | Compound
< 800 | CN1CCC(O)C2(CCCN(C(=O)Nc3nc4c(s3)-c3c(cnn3-c3ccccc3Cl)C4)C2)C1 (stereo not given)
< 800 | NC(=O)Nc1nc2c(s1)-c1c(cnn1-c1cccc(F)c1C(F)(F)F)C2
< 800 | Cc1nn(C)cc1CNC(=O)Nc1nc2c(s1)-c1c(cnn1-c1ccccc1C(F)(F)F)C2
< 800 | O=C(NCc1cccnc1)Nc1nc2c(s1)-c1c(cnn1-c1ccccc1C(F)(F)F)C2
< 800 | CCn1ccc(CNC(=O)Nc2nc3c(s2)-c2c(cnn2-c2ccccc2C(F)(F)F)C3)n1
< 800 | CCOC(Cn1nc(CCNC(=O)Nc2nc3c(s2)-c2c(cnn2-c2ccccc2C(F)(F)F)C3)cc1N)OCC
< 800 | Cn1cc(CNC(=O)Nc2nc3c(s2)-c2c(cnn2-c2ccccc2C(F)(F)F)C3)cn1
< 800 | O=C(Nc1nc2c(s1)-c1c(cnn1-c1ccccc1Cl)C2)N1CCCC(C(O)c2ccccc2)C1 (stereo not given)
< 800 | Cc1c[nH]c(CCNC(=O)Nc2nc3c(s2)-c2c(cnn2-c2ccccc2Cl)C3)n1
< 800 | O=C(NCc1ccncc1)Nc1nc2c(s1)-c1c(cnn1-c1ccccc1C(F)(F)F)C2
< 800 | CCn1cnc(CCNC(=O)Nc2nc3c(s2)-c2c(cnn2-c2cc(Cl)ccc2Cl)C3)c1
< 800 | O=C(NCCc1nc(C2CC2)no1)Nc1nc2c(s1)-c1c(cnn1-c1ccccc1C(F)(F)F)C2
< 800 | O=C(Nc1nc2c(s1)-c1c(cnn1-c1ccccc1Cl)C2)N1CCC2(CC1)C(=O)NCN2c1ccccc1
< 800 | O=C(NCc1nnn[nH]1)Nc1nc2c(s1)-c1c(cnn1-c1ccccc1Br)C2
< 800 | CN(Cc1cccs1)C(=O)Nc1nc2c(s1)-c1c(cnn1-c1ccccc1C(F)(F)F)C2
< 800 | N#Cc1ccc(CNC(=O)Nc2nc3c(s2)-c2c(cnn2-c2ccccc2C(F)(F)F)C3)s1
< 800 | CCn1cc(CNC(=O)Nc2nc3c(s2)-c2c(cnn2-c2ccccc2C(F)(F)F)C3)cn1
< 800 | O=C(Nc1nc2c(s1)-c1c(cnn1-c1ccccc1Cl)C2)N1CCCC(c2ccccc2O)C1 (stereo not given)
< 800 | Cn1cccc1CCNC(=O)Nc1nc2c(s1)-c1c(cnn1-c1ccccc1Cl)C2
< 800 | Cc1ccc(CN2CC(NC(=O)Nc3nc4c(s3)-c3c(cnn3-c3ccccc3Cl)C4)CC2=O)cc1 (stereo not given)
< 800 | O=C(Nc1nc2c(s1)-c1c(cnn1-c1ccccc1Cl)C2)N1CCC(n2cnc3ccccc32)CC1
< 800 | Nc1cc(CNC(=O)Nc2nc3c(s2)-c2c(cnn2-c2ccccc2C(F)(F)F)C3)nn1C1CCCC1
< 800 | CCCNC(=O)Nc1nc2c(s1)-c1c(cnn1-c1ccccc1Br)C2

IC50 [nM] | Compound
< 800 | Nc1cc(CCNC(=O)Nc2nc3c(s2)-c2c(cnn2-c2ccccc2C(F)(F)F)C3)[nH]n1
< 800 | Nc1cc(CCNC(=O)Nc2nc3c(s2)-c2c(cnn2-c2ccccc2C(F)(F)F)C3)nn1Cc1ccccc1
< 800 | CC(C)CCNC(=O)Nc1nc2c(s1)-c1c(cnn1-c1ccccc1Cl)C2
< 800 | Cc1cc(C2CCCCC2)n(CCNC(=O)Nc2nc3c(s2)-c2c(cnn2-c2ccccc2C(F)(F)F)C3)n1
< 800 | CC(C)(C)OC(=O)NCc1ccccc1NC(=O)Nc1nc2c(s1)-c1c(cnn1-c1ccccc1Cl)C2
< 800 | O=C(NCC1CC1)Nc1nc2c(s1)-c1c(cnn1-c1cccc(F)c1C(F)(F)F)C2
< 800 | Cc1cc(-c2cccnc2)n(CCNC(=O)Nc2nc3c(s2)-c2c(cnn2-c2ccccc2C(F)(F)F)C3)n1
< 800 | CC(C)(CNc1ccc(C(C)(C)C)cc1)NC(=O)Nc1nc2c(s1)-c1c(cnn1-c1ccccc1Cl)C2
< 800 | CCOC(=O)Cn1nc(CCNC(=O)Nc2nc3c(s2)-c2c(cnn2-c2ccccc2C(F)(F)F)C3)cc1N
< 800 | O=C(NCCn1nc(C(F)(F)F)cc1-c1ccco1)Nc1nc2c(s1)-c1c(cnn1-c1ccccc1C(F)(F)F)C2
< 800 | CC(NC(=O)Nc1nc2c(s1)-c1c(cnn1-c1ccccc1Cl)C2)c1cccc(NC(=O)OC(C)(C)C)c1 (stereo not given)
< 800 | O=C(NCC1CCC(N2CCNC2=O)CC1)Nc1nc2c(s1)-c1c(cnn1-c1ccccc1Cl)C2 (stereo not given)
< 800 | CC(C)(CCn1c(=O)[nH]c2ccccc21)NC(=O)Nc1nc2c(s1)-c1c(cnn1-c1ccccc1C(F)(F)F)C2
< 800 | CCc1cc(CC)n(CCNC(=O)Nc2nc3c(s2)-c2c(cnn2-c2ccccc2C(F)(F)F)C3)n1
< 800 | O=C(NCc1ccccc1N1CCCCC1)Nc1nc2c(s1)-c1c(cnn1-c1ccccc1Cl)C2
< 800 | O=C(O)[C@H]1[C@H](c2ccccc2)CCN1C(=O)Nc1nc2c(s1)-c1c(cnn1-c1ccccc1Cl)C2
< 800 | CCCn1cnc(CCNC(=O)Nc2nc3c(s2)-c2c(cnn2-c2ccccc2Br)C3)c1
< 800 | CC(C)c1noc(CCNC(=O)Nc2nc3c(s2)-c2c(cnn2-c2ccccc2Cl)C3)n1
< 800 | O=C(NCc1ccccc1-n1cccn1)Nc1nc2c(s1)-c1c(cnn1-c1ccccc1Cl)C2
< 800 | CC(C)(C)OC(=O)CCNC(=O)Nc1nc2c(s1)-c1c(cnn1-c1ccccc1Cl)C2
< 800 | CCCn1cnc(CCNC(=O)Nc2nc3c(s2)-c2c(cnn2-c2ccccc2Cl)C3)c1

Source: the Kinase Knowledgebase extract (Sharma et al. 2016)
